Reference: patent US20130101634A1, “COMPOSITIONS AND METHODS FOR REDUCING MICROBIAL OVERGROWTH IN THE SMALL INTESTINES” (DEERLAND ENZYMES, INC., priority 2011, published 2013)

Legend:
[1] = test system: E. coli; assay: Growth curve (O.D. 600 over time) in nutrient broth; type: cell-based; conditions: 1 mg/ml in nutrient broth, alone or with 1 mg/ml EDTA or citrate, 37° C., FIGS. 1, 3, 5
Experimental: (§1) Growth Curves Since bacteria grow exponentially, it is useful to plot the logarithm of the relative population size [y=ln(NIN0)] against time. Frozen permanents of each strain were streaked for single colonies using nutrient agar plates warmed prior to use. Single bacterial cells were restreaked on a nutrient agar plate at 37° C. for 24 h to 72 h depending on strain. Cells of several well-grown colonies on the plate were added to 50 ml of nutrient broth with shaking at 37° C. until the culture reached the desired optical density. Ingredients of interest were slowly added while stirring at 37° C. […] Samples were taken at various time points and the optical density of the culture was obtained at 600 nm. All experiments were replicated twice.

[2] = test system: Bacteroides fragilis; assay: as above; type: cell-based; conditions: 1 mg/ml in nutrient broth, alone or with 1 mg/ml EDTA, 37° C., FIGS. 2, 4, 6
Experimental: as §1

Substance | cell growth (O.D. 600 as a function of time) [1] | cell growth (O.D. 600 as a function of time) [2]
lysozyme | cell growth is not totally eliminated and cell culture will recover | cell growth is not totally eliminated and cell culture will recover
nisin | cell growth is not totally eliminated and cell culture will recover | cell growth is not totally eliminated and cell culture will recover
